Test results reported in patent US20250195521A1 (Revolution Medicines, Inc., priority 2020, published 2025).
Read-outs that look alike come from different tables or passages of the source.

Experiments:
KRAS G12V = KRAS G12V (Homo sapiens (Human), UniProt P01116+P62937, G12V); experiment: Ras-Raf disruption/FRET/MOA assay (BRAF RBD, Cyclophilin A); type: biochemical; conditions: read-out: KRAS G12V FRET IC50
Outline: (§1)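 Ras-GMPPNP (12.5 nM), BRAF RBD (50 nM) and 25 μM Cyclophilin A were incubated with compound for 3 h at 25° C, then detected 1.5 h with anti-His Eu and anti-GST APC; IC50 values follow from the reduced TR-FRET ratio.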

KRAS G13D = KRAS G13D (Homo sapiens (Human), UniProt P01116+P62937, G13D); experiment: as above; type: biochemical; conditions: read-out: KRAS G13D FRET data IC50
Sequence of KRAS G13D (P01116 other isoform, or with tags, fused parts or gaps G13D): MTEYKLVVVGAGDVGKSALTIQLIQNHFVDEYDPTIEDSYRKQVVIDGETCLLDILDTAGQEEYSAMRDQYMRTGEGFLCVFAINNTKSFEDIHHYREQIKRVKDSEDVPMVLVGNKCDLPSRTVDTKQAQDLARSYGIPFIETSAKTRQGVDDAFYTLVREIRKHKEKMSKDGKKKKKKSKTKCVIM
Sequence of KRAS G13D (P62937 whole entry): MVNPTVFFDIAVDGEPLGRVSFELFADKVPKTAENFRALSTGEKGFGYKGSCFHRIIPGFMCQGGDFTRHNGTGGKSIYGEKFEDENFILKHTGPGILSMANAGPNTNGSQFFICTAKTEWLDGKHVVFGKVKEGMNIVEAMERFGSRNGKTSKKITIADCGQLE
Outline: as §1

KRAS WT = KRAS WT (Homo sapiens (Human), UniProt P01116+P62937); experiment: as above; type: biochemical; conditions: read-out: KRAS WT FRET data IC50
Sequence of KRAS WT (P01116 other isoform, or with tags, fused parts or gaps): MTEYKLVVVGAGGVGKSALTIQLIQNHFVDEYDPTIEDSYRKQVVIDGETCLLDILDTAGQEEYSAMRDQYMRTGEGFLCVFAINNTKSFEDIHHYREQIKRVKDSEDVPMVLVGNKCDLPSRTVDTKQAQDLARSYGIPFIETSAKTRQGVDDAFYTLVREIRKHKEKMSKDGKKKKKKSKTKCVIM
Sequence of KRAS WT (P62937 whole entry): as the sequence (P62937 whole entry) above
Outline: as §1

KRAS G13C = KRAS G13C (Homo sapiens (Human), UniProt P01116+P62937, G13C); experiment: as above; type: biochemical; conditions: read-out: KRAS G13C FRET IC50
Sequence of KRAS G13C (P01116 other isoform, or with tags, fused parts or gaps G13C): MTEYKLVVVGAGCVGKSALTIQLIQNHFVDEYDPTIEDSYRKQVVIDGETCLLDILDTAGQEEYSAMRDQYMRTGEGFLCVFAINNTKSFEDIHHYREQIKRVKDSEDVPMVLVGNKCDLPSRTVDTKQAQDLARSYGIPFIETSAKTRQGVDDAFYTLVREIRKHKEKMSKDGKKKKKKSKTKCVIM
Sequence of KRAS G13C (P62937 whole entry): as the sequence (P62937 whole entry) above
Outline: as §1

KRAS Q61H = KRAS Q61H (Homo sapiens (Human), UniProt P01116+P62937, Q61H); experiment: as above; type: biochemical
Sequence of KRAS Q61H (P01116 other isoform, or with tags, fused parts or gaps Q61H): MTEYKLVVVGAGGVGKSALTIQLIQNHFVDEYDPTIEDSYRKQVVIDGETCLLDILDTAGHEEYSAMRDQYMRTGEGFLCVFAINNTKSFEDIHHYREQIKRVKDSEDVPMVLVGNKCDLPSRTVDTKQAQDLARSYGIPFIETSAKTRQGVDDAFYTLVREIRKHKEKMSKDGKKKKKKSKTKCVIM
Sequence of KRAS Q61H (P62937 whole entry): as the sequence (P62937 whole entry) above
Outline: as §1

KRAS G12S = KRAS G12S (Homo sapiens (Human), UniProt P01116+P62937, G12S); experiment: as above; type: biochemical; conditions: read-out: KRAS G12S FRET IC50
Sequence of KRAS G12S (P01116 other isoform, or with tags, fused parts or gaps G12S): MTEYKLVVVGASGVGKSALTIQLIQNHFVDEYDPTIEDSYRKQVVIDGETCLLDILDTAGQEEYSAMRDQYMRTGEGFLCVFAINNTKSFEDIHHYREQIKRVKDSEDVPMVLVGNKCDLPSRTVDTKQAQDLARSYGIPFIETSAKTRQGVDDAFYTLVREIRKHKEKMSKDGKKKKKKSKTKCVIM
Sequence of KRAS G12S (P62937 whole entry): as the sequence (P62937 whole entry) above
Outline: as §1

NRAS Q61K = NRAS Q61K (Homo sapiens (Human), UniProt P01111+P62937, Q61K); experiment: as above; type: biochemical
Sequence of NRAS Q61K (P01111 whole entry Q61K): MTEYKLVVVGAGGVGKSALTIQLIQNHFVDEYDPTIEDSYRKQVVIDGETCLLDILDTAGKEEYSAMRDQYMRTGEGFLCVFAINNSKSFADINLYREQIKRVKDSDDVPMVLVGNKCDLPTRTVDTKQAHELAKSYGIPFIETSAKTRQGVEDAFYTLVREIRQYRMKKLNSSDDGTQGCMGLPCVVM
Sequence of NRAS Q61K (P62937 whole entry): as the sequence (P62937 whole entry) above
Outline: (§2)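 First, 25 μM Cyclophilin A, 12.5 nM His6-Ras-GMPPNP and 50 nM GST-BRAF RBD are mixed with diluted compound at pH 7.3. Next, 3 h at 25° C. Then 10 nM anti-His Eu-W1024 plus 50 nM anti-GST allophycocyanin for 1.5 h before TR-FRET reading.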

KRAS G12D = KRAS G12D (Homo sapiens (Human), UniProt P01116+P62937, G12D); experiment: as above; type: biochemical; conditions: read-out: KRAS G12D FRET IC50
Sequence of KRAS G12D (P01116 other isoform, or with tags, fused parts or gaps G12D): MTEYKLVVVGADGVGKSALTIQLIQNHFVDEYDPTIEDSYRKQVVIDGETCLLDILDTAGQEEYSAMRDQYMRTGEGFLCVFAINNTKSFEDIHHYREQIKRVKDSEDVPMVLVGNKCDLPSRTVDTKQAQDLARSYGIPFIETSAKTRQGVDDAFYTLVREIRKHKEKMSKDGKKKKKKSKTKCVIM
Sequence of KRAS G12D (P62937 whole entry): as the sequence (P62937 whole entry) above
Outline: as §1

NRAS WT = NRAS WT (Homo sapiens (Human), UniProt P01111+P62937); experiment: as above; type: biochemical
Sequence of NRAS WT (P01111 whole entry): as the sequence (P01111 whole entry Q61K) above, with K61Q counted along it
Sequence of NRAS WT (P62937 whole entry): as the sequence (P62937 whole entry) above
Outline: as §2

KRAS G12C = KRAS G12C (Homo sapiens (Human), UniProt P01116+P62937, G12C); experiment: as above; type: biochemical; conditions: read-out: KRAS G12C FRET IC50
Sequence of KRAS G12C (P01116-2 other isoform, or with tags, fused parts or gaps G12C): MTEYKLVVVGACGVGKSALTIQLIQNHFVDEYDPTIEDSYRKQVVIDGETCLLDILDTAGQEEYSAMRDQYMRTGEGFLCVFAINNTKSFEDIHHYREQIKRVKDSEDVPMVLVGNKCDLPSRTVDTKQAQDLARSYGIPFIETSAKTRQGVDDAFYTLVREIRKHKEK
Sequence of KRAS G12C (P62937 whole entry): as the sequence (P62937 whole entry) above
Outline: as §1

NRAS G12C = NRAS G12C (Homo sapiens (Human), UniProt P01111+P62937, G12C); experiment: as above; type: biochemical; conditions: read-out: NRAS G12C FRET data IC50
Sequence of NRAS G12C (P01111 whole entry G12C): as the sequence (P01111 whole entry Q61K) above, with G12C, K61Q counted along it
Sequence of NRAS G12C (P62937 whole entry): as the sequence (P62937 whole entry) above
Outline: as §2

[1] = system: Capan-1 cells (K-Ras G12V); experiment: CellTiter-Glo cell viability, Capan-1; type: cell-based, human; conditions: Homo sapiens, CAPAN-1, 120 h, K-Ras G12V, 5-day treatment; read-out: Capan-1 Cell Viability IC50
Outline: (§3)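 Compounds were dispensed directly onto seeded cells and incubated until day 5, then plates were equilibrated at room temperature for about 30 min before CellTiter-Glo luminescence readout. Signals were normalized as (sample/average DMSO)×100 and fitted with a four-parameter logistic model.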

[2] = system: NCI-H358 cells (K-Ras G12C); experiment: CellTiter-Glo cell viability, NCI-H358; type: cell-based, human; conditions: Homo sapiens, NCI-H358, 120 h, K-Ras G12C, 5-day treatment; read-out: H358 Cell Viability IC50
Outline: as §3

NRAS Q61R = NRAS Q61R (Homo sapiens (Human), UniProt P01111+P62937, Q61R); experiment: Ras-Raf disruption/FRET/MOA assay (BRAF RBD, Cyclophilin A); type: biochemical
Sequence of NRAS Q61R (P01111 whole entry Q61R): as the sequence (P01111 whole entry Q61K) above, with K61R counted along it
Sequence of NRAS Q61R (P62937 whole entry): as the sequence (P62937 whole entry) above
Outline: as §2

[3] = system: K-Ras G12C (NCI-H358 cells); experiment: Potency assay: pERK in NCI-H358 cells; type: cell-based, human; conditions: Homo sapiens; NCI-H358 cells, 4 hours; read-out: pERK EC50 (H358 KRAS G12C)
Outline: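 Cells plated the day before were exposed for 4 h at 37° C, 5% CO2 to a 10-point, 3-fold DMSO dilution series (10 mM top stock), in duplicate. Phospho-ERK was read by AlphaLISA SureFire Ultra or by In-Cell Western with DRAQ5 DNA stain, and IC50 came from a 4-parameter sigmoidal fit.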

AsPC-1 (K-Ras G12D) = experiment: Potency assay: pERK; type: cell-based, human; conditions: Homo sapiens
Procedure: The purpose of this assay is to measure the ability of test compounds to inhibit K-Ras in cells. […] This procedure measures a decrease in cellular pERK in response to test compounds. The procedure described below in NCI-H358 cells is applicable to K-Ras G12C.
NCI-H358 cells were grown and maintained using media and procedures recommended by the ATCC. On the day prior to compound addition, cells were plated in 384-well cell culture plates (40 μl/well) and grown overnight in a 37° C., 5% CO2 incubator. Test compounds were prepared in 10, 3-fold dilutions in DMSO, with a high concentration of 10 mM. On the day of assay, 40 nL of test compound was added to each well of cell culture plate using an Echo550 liquid handler (LabCyte®). Concentrations of test compound were tested in duplicate. After compound addition, cells were incubated 4 hours at 37° C., 5% CO2. Following incubation, culture medium was removed and cells were washed once with phosphate buffered saline.
In some experiments, cellular pERK level was determined using the AlphaLISA SureFire Ultra p-ERK1/2 Assay Kit (PerkinElmer). Cells were lysed in 25 μL lysis buffer, with shaking at 600 RPM at room temperature. Lysate (10 μL) was transferred to a 384-well Opti-plate (PerkinElmer) and 5 μL acceptor mix was added. After a 2-hour incubation in the dark, 5 μL donor mix was added, plate was sealed, and incubated 2 hours at room temperature. Signal was read on an Envision plate reader (PerkinElmer) using standard AlphaLISA settings. Analysis of raw data was carried out in Excel (Microsoft) and Prism (GraphPad). Signal was plotted vs. the decadal logarithm of compound concentration, and IC50 was determined by fitting a 4-parameter sigmoidal concentration response model.
In other experiments, cellular pERK was determined by In-Cell Western. Following compound treatment, cells were washed twice with 200 μL tris buffered saline (TBS) and fixed for 15 minutes with 150 μL 4% paraformaldehyde in TBS. Fixed cells were washed 4 times for 5 minutes with TBS containing 0.1% Triton X-100 (TBST) and then blocked with 100 μL Odyssey blocking buffer (LI-COR) for 60 minutes at room temperature. Primary antibody (PERK, CST-4370, Cell Signaling Technology) was diluted 1:200 in blocking buffer, and 50 μL was added to each well and incubated overnight at 4° C. Cells were washed 4 times for 5 minutes with TBST. Secondary antibody (IR-800CW rabbit, LI-COR, diluted 1:800) and DNA stain DRAQ5 (LI-COR, diluted 1:2000) were added and incubated 1-2 hours at room temperature. Cells were washed 4 times for 5 minutes with TBST. Plates were scanned on a Li—COR Odyssey CLx Imager. Analysis of raw data was carried out in Excel (Microsoft) and Prism (GraphPad). Signal was plotted vs. the decadal logarithm of compound concentration, and IC50 was determined by fitting a 4-parameter sigmoidal concentration response model.

Sequence of KRAS G12V (P01116 other isoform, or with tags, fused parts or gaps G12V): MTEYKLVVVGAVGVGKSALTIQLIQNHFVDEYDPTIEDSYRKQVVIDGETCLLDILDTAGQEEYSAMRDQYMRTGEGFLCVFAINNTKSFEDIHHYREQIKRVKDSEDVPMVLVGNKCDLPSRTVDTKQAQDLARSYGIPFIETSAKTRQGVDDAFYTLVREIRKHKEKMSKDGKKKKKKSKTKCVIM
Sequence of KRAS G12V (P62937 whole entry): as the sequence (P62937 whole entry) above

With `CCn1c(-c2cccnc2[C@H](C)OC)c2c3cc(ccc31)-c1csc(n1)C[C@H](NC(=O)N1CCC1)C(=O)N1CCC[C@H](N1)C(=O)OCC(C)(C)C2` [Compound A368] the IC50 (KRAS G12V) was 100 to 1000 nM, the IC50 (KRAS G13D) was 1000 to 10000 nM and the IC50 (KRAS WT) was 100 to 1000 nM. For the same molecule, the IC50 (KRAS G13C) was 100 to 1000 nM, the IC50 (KRAS Q61H) was 100 to 1000 nM and the IC50 (KRAS G12S) was 100 to 1000 nM. It also gave an IC50 (NRAS Q61K) of 100 to 1000 nM, an IC50 (KRAS G12D) of 1000 to 10000 nM and an IC50 (NRAS WT) of 100 to 1000 nM. For the same molecule, the IC50 (KRAS G12C) was 100 to 1000 nM, the IC50 (NRAS G12C) was 100 to 1000 nM and the IC50 [1] was 100 to 1000 nM. For the same molecule, the IC50 [2] was 100 to 1000 nM.

In the case of `CCn1c(-c2cccnc2[C@H](C)OC)c2c3cc(ccc31)-c1csc(n1)C[C@H](NC(=O)[C@H](C(C)C)N(C)C(=O)[C@H]1[C@@H]3CNC[C@@H]31)C(=O)N1CCC[C@H](N1)C(=O)OCC(C)(C)C2` [Compound A448], the IC50 (NRAS Q61R) is reported as 1000 to 10000 nM, the IC50 (KRAS G13D) is reported as 1000 to 10000 nM and the IC50 (KRAS WT) is reported as 1000 to 10000 nM. For the same molecule, the IC50 (KRAS G13C) was 1000 to 10000 nM, the IC50 (KRAS G12S) was 1000 to 10000 nM and the IC50 (NRAS Q61K) was 1000 to 10000 nM. It also gave an IC50 (KRAS G12D) of 1000 to 10000 nM, an IC50 (NRAS WT) of 1000 to 10000 nM and an IC50 (KRAS G12C) of 1000 to 10000 nM. The IC50 (NRAS G12C) was 1000 to 10000 nM, the IC50 [1] was greater than 10000 nM and the EC50 [3] was less than 5000 nM.

For `CCn1c(-c2cc(N3CCN(C)CC3)cnc2[C@H](C)OC)c2c3cc(ccc31)-c1csc(n1)C[C@H](NC(=O)[C@H](C(C)C)N(C)C(=O)C1OCC[C@@H]1c1ccccc1)C(=O)N1CCC[C@H](N1)C(=O)OCC(C)(C)C2` (stereo partly shown) [Compound A583], the IC50 (NRAS Q61R) was 10 to 100 nM, the IC50 (NRAS Q61K) was 100 to 1000 nM and the IC50 (NRAS WT) was 100 to 1000 nM. For the same molecule, the IC50 (NRAS G12C) was 10 to 100 nM, the IC50 [1] was less than 10 nM and the IC50 [2] was less than 10 nM. It also gave an EC50 [3] of less than 5000 nM.

Work on `CCn1c(-c2cccnc2[C@H](C)OC)c2c3cc(ccc31)-c1cc(O)cc(c1)C[C@H](NC(=O)[C@H](C(C)C)N(C)C(=O)CN(C)C(=O)[C@@H]1CN1CCCN1CCCC1=O)C(=O)N1CCC[C@H](N1)C(=O)OCC(C)(C)C2` (stereo partly shown) [Example 269] yielded an EC50 (AsPC-1 (K-Ras G12D); ASPC1, read-out: pERK EC50) of less than 5000 nM.

For `CCn1c(-c2cccnc2[C@H](C)OC)c2c3cc(ccc31)-c1cc(cc(C(F)F)c1)C[C@H](NC(=O)[C@H](C1CCCC1)N1CC[C@]3(CCN(C(=O)[C@@H]4N[C@@H]4C4CC4)C3)C1=O)C(=O)N1CCC[C@H](N1)C(=O)OCC(C)(C)C2` [Example 318], the EC50 (AsPC-1 (K-Ras G12D); ASPC1, AsPC-1 KRAS G12D, read-out: pERK EC50) was less than 5000 nM.
